Here are results for 33 compounds from ChEMBL document CHEMBL1145410 (Bioorg Med Chem Lett, 2007).

One data set addresses Dipeptidyl peptidase 8 (Homo sapiens, UniProt Q6V1X1). Kind of data set: Inhibition of DPP8.
For a further data set, the target named is Dipeptidyl peptidase 9 (Homo sapiens, UniProt Q86TI2). Kind of data set: Inhibition of DPP9.
The target of another data set is Dipeptidyl peptidase 4 (Homo sapiens, UniProt P27487). The data set is described as follows: Inhibition of DPP4.
In the next data set the target is Dipeptidyl peptidase 2 (Homo sapiens, UniProt Q9UHL4). The data set is described as follows: Inhibition of QPP.
A short description of data set [1]: Inhibition of rabbit calcium channel L type. Details: species or system Oryctolagus cuniculus.
The target of the next data set is Cytochrome P450 2D6 (Homo sapiens, UniProt P10635). The data set is described as follows: Inhibition of Cyp2D6. The class given is ADME.
The nature of data set [2]: Plasma clearance in rat at 1 mg/kg iv or 2 mg/kg po. It counts as ADME, organism-based.
Data set [3] is described as follows: Half life in rat at 1 mg/kg iv or 2 mg/kg po. The class given is ADME, organism-based. Conditions: in vivo.
Data set [4] can be described thus: Bioavailability iin rat at 1 mg/kg iv or 2 mg/kg po. The class given is ADME, organism-based. Conditions: in vivo.
Data set [5] addresses Voltage-gated inwardly rectifying potassium channel KCNH2 (Homo sapiens, UniProt Q12809). The data set is described as follows: Inhibition of human ERG potassium channel.

Chain of Voltage-gated inwardly rectifying potassium channel KCNH2 (Q12809 whole entry): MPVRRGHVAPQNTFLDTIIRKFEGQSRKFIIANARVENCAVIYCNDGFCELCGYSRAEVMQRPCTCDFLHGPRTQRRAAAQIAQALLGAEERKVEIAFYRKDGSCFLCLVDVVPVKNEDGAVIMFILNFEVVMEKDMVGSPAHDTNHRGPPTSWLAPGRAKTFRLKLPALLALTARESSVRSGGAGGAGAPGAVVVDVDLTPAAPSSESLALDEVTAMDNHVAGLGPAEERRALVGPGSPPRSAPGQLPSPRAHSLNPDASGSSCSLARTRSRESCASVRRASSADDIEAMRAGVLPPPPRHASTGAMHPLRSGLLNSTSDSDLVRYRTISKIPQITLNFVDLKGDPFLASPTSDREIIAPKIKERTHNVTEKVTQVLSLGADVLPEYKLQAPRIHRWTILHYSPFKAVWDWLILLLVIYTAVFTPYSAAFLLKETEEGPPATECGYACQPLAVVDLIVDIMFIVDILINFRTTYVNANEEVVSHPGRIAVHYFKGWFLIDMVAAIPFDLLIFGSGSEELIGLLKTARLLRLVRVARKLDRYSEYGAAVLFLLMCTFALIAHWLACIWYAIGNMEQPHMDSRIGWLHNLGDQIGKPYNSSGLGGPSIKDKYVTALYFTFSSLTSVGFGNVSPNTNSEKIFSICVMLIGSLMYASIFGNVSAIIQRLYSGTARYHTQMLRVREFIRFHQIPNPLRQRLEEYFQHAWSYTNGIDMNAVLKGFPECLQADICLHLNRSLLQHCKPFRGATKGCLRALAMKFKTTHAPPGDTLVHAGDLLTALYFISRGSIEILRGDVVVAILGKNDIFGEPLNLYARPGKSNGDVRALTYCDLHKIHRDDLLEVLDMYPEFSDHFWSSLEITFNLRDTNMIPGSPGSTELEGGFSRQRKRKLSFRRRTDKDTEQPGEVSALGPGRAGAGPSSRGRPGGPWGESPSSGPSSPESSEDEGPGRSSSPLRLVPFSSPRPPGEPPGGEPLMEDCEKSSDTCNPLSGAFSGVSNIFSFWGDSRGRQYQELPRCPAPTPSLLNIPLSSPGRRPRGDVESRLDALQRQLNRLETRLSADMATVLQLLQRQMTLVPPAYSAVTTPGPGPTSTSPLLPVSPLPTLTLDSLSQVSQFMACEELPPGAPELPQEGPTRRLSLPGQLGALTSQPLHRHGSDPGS
Chain of Cytochrome P450 2D6 (P10635 whole entry): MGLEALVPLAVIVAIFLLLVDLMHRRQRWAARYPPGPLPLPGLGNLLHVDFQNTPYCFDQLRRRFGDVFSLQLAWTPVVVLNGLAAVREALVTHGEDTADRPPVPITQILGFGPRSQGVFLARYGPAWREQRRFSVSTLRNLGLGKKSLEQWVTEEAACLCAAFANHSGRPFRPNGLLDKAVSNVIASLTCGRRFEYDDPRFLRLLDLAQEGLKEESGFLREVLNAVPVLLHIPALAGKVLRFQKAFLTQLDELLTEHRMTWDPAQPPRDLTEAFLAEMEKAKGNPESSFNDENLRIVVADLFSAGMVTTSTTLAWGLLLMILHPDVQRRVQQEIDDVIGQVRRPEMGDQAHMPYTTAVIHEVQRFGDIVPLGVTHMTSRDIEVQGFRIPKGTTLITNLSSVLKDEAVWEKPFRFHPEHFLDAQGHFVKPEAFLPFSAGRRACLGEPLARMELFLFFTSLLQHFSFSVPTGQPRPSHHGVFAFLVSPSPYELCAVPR
Chain of Dipeptidyl peptidase 4 (P27487 whole entry): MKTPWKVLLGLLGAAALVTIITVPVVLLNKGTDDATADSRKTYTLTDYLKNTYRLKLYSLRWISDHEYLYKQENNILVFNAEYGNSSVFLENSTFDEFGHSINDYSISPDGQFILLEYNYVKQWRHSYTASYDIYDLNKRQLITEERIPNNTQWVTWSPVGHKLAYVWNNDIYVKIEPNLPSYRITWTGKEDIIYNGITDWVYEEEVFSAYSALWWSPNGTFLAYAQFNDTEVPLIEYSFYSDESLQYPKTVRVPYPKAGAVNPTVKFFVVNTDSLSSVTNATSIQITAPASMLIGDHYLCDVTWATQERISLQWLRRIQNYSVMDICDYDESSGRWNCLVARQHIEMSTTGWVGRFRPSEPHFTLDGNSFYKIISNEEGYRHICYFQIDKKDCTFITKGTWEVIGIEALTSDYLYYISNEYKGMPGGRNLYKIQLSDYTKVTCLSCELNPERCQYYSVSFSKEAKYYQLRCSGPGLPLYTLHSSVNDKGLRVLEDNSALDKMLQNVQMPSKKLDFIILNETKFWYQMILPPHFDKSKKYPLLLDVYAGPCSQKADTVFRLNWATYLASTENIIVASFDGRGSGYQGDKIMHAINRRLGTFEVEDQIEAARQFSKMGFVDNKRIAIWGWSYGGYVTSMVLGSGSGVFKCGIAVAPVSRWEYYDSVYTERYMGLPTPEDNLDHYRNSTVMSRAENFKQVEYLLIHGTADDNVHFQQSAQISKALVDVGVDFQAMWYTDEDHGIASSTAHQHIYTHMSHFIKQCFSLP
Chain of Dipeptidyl peptidase 8 (Q6V1X1 whole entry): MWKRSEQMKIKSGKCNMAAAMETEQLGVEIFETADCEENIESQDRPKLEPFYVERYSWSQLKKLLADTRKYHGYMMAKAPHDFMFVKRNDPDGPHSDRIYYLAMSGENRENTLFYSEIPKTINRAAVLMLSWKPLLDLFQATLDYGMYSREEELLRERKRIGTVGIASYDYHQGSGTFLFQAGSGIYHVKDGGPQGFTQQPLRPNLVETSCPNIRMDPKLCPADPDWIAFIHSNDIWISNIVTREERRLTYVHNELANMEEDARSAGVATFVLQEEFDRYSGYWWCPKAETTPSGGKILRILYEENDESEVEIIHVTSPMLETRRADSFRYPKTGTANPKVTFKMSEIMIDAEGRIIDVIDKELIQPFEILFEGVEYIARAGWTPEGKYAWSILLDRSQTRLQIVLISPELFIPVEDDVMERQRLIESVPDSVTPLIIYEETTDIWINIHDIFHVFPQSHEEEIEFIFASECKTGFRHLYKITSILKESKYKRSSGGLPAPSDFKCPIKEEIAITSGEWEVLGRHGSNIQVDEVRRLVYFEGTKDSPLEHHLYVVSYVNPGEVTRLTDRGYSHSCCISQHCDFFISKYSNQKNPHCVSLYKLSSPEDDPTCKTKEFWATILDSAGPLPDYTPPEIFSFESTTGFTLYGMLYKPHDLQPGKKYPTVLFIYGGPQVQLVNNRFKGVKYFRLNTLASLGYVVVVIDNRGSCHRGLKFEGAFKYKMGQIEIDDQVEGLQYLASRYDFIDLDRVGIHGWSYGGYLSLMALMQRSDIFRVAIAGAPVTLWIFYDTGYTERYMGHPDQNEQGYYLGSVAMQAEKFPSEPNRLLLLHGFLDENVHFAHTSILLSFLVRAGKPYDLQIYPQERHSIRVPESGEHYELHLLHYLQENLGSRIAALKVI
Chain of Dipeptidyl peptidase 9 (Q86TI2 whole entry): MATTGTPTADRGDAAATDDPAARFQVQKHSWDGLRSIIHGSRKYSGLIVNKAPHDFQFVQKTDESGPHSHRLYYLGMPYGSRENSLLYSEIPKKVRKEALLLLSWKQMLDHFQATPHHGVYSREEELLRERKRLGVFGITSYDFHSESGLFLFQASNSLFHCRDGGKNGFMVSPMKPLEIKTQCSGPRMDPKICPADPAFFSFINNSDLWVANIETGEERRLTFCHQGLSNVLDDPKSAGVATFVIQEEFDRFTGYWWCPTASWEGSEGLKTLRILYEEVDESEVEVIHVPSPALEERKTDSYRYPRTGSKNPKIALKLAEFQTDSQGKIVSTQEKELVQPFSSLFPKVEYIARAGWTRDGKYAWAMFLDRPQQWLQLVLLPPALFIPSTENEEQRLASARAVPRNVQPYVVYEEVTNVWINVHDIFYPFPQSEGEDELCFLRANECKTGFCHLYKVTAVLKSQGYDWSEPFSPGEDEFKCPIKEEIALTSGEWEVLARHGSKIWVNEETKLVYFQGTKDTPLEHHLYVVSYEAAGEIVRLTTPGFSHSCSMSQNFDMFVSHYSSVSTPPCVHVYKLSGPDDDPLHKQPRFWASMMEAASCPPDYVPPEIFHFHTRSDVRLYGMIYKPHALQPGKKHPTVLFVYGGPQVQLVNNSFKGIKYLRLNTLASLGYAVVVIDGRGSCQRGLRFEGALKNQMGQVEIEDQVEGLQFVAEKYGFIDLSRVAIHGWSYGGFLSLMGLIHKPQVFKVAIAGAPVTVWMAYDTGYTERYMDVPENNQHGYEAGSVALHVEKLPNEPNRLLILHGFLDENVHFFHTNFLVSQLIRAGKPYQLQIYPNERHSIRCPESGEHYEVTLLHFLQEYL

As to `N[C@H]1CN(c2ccc3nnc(C(F)(F)F)n3n2)CC[C@@H]1c1cc(F)c(F)cc1F`, the IC50 was greater than 100 µM against Dipeptidyl peptidase 8, 90 µM at Dipeptidyl peptidase 9, 0.009 µM at Dipeptidyl peptidase 4 and 96 µM on Dipeptidyl peptidase 2.

In the case of `N[C@H]1CN(c2ccc3nnc(-c4ccc(F)cc4)n3n2)CC[C@@H]1c1cc(F)c(F)cc1F`, on Dipeptidyl peptidase 2, inhibition was half-maximal at 15 µM (IC50).

Take `N[C@H]1CN(c2ccccn2)CC[C@@H]1c1cc(F)c(F)cc1F`: the IC50 is 34 µM against Dipeptidyl peptidase 8, 38 µM at Dipeptidyl peptidase 9, 0.058 µM against Dipeptidyl peptidase 4 and 50 µM at Dipeptidyl peptidase 2.

Take `N[C@H]1CN(c2cccnc2)CC[C@@H]1c1cc(F)c(F)cc1F`: the IC50 against Dipeptidyl peptidase 8 came out at 54 µM; at Dipeptidyl peptidase 9, 36 µM; at Dipeptidyl peptidase 4 it was 0.144 µM; on Dipeptidyl peptidase 2, 82 µM.

Take `N[C@H]1CN(c2cccc(C(F)(F)F)n2)CC[C@@H]1c1cc(F)c(F)cc1F`: the IC50 against Dipeptidyl peptidase 8 was greater than 100 µM; against Dipeptidyl peptidase 9, 21 µM; against Dipeptidyl peptidase 4 it was 0.111 µM; at Dipeptidyl peptidase 2 it was 5.3 µM.

With `N[C@H]1CN(c2ncccc2C(F)(F)F)CC[C@@H]1c1cc(F)c(F)cc1F`, the IC50 against Dipeptidyl peptidase 8 and on Dipeptidyl peptidase 9 was greater than 100 µM in each case.

Take `N#Cc1ccc(N2CC[C@H](c3cc(F)c(F)cc3F)[C@@H](N)C2)nc1`: the IC50 amounted to 5.8 µM against Dipeptidyl peptidase 8, 9.6 µM against Dipeptidyl peptidase 9, 0.014 µM against Dipeptidyl peptidase 4 and 40 µM on Dipeptidyl peptidase 2.

Take `N[C@H]1CN(c2ccncn2)CC[C@@H]1c1cc(F)c(F)cc1F`: the IC50 at Dipeptidyl peptidase 8 is 60 µM; at Dipeptidyl peptidase 9 it was 67 µM; on Dipeptidyl peptidase 4 it was 0.037 µM; on Dipeptidyl peptidase 2, greater than 100 µM; in data set [1] it was 26.9 µM.

For the compound `N[C@H]1CN(c2cnccn2)CC[C@@H]1c1cc(F)c(F)cc1F`, the IC50 was found to be 76 µM against Dipeptidyl peptidase 8, 40 µM against Dipeptidyl peptidase 9, 0.082 µM against Dipeptidyl peptidase 4 and 33 µM on Dipeptidyl peptidase 2.

As for `N[C@H]1CN(c2cccnn2)CC[C@@H]1c1cc(F)c(F)cc1F`, the IC50 was 40 µM at Dipeptidyl peptidase 8, 44 µM against Dipeptidyl peptidase 9, 0.063 µM against Dipeptidyl peptidase 4 and greater than 100 µM at Dipeptidyl peptidase 2.

For the compound `N[C@H]1CN(c2nccc3ccccc23)CC[C@@H]1c1cc(F)c(F)cc1F`, the IC50 on Dipeptidyl peptidase 8 was greater than 100 µM; at Dipeptidyl peptidase 9, greater than 100 µM; on Dipeptidyl peptidase 4 it was 3.7 µM; at Dipeptidyl peptidase 2 it was 32 µM.

As to `N[C@H]1CN(c2ccc3nccnc3n2)CC[C@@H]1c1cc(F)c(F)cc1F`, the IC50 against Dipeptidyl peptidase 8 was 25 µM; on Dipeptidyl peptidase 9, 50 µM; at Dipeptidyl peptidase 4, 0.007 µM; against Dipeptidyl peptidase 2, 35 µM.

For the compound `N[C@H]1CN(c2cnc3cccnc3n2)CC[C@@H]1c1cc(F)c(F)cc1F`, the IC50 against Dipeptidyl peptidase 8 is 66 µM; against Dipeptidyl peptidase 9, greater than 100 µM; at Dipeptidyl peptidase 4, 0.13 µM; against Dipeptidyl peptidase 2 it was 58 µM.

The compound `N[C@H]1CN(c2cnc3cncnc3n2)CC[C@@H]1c1cc(F)c(F)cc1F` returned an IC50 at Dipeptidyl peptidase 2 of 87 µM.

For `N[C@H]1CN(c2cnc3nccnc3n2)CC[C@@H]1c1cc(F)c(F)cc1F.O=C(O)C(F)(F)F`, the IC50 is 54 µM on Dipeptidyl peptidase 8; greater than 100 µM against Dipeptidyl peptidase 9; 0.013 µM at Dipeptidyl peptidase 4; 93 µM against Dipeptidyl peptidase 2; 4.1 µM in data set [1]; 11.6 µM against Cytochrome P450 2D6. Moreover, the clearance in data set [2] turned out to be 3.72 L/h/kg. The same compound showed a half-life in data set [3] of 1.4 h. Moreover, the bioavailability in data set [4] is 45%.

As for `N[C@H]1CN(c2ccc3nc(C(F)(F)F)nn3n2)CC[C@@H]1c1cc(F)c(F)cc1F`, the IC50 on Dipeptidyl peptidase 8 was greater than 100 µM; at Dipeptidyl peptidase 9, greater than 100 µM; at Dipeptidyl peptidase 4, 0.005 µM; on Dipeptidyl peptidase 2, greater than 100 µM; in [5] it was 8.1 µM; in [1], 1 µM. For the same compound, the IC50 at Cytochrome P450 2D6 amounted to 0.1 µM.

With `N[C@H]1CN(c2ccn3cnnc3n2)CC[C@@H]1c1cc(F)c(F)cc1F.O=C(O)C(F)(F)F`, the IC50 at Dipeptidyl peptidase 8 was 30 µM; at Dipeptidyl peptidase 9, 43 µM; against Dipeptidyl peptidase 4, 0.026 µM; on Dipeptidyl peptidase 2 it was greater than 100 µM; on Cytochrome P450 2D6, 20.6 µM. In data set [2], this compound registered a clearance of 3.24 L/h/kg. In data set [3], this compound gave a half-life of 1.5 h. This compound also yielded a bioavailability in [4] of 19%.

Consider `N[C@H]1CN(c2ccc3ncnc(C4CC4)c3n2)CC[C@@H]1c1cc(F)c(F)cc1F`, for which the IC50 against Dipeptidyl peptidase 8 is 28 µM; against Dipeptidyl peptidase 9, 32 µM; against Dipeptidyl peptidase 4 it was 0.008 µM; against Dipeptidyl peptidase 2 it was 9.9 µM.

Consider `Cc1nc2ccc(N3CC[C@H](c4cc(F)c(F)cc4F)[C@@H](N)C3)nc2c(=O)[nH]1`, for which the IC50 was 80 µM on Dipeptidyl peptidase 8, greater than 100 µM against Dipeptidyl peptidase 9, 0.007 µM against Dipeptidyl peptidase 4 and 46 µM against Dipeptidyl peptidase 2.

For `N[C@H]1CN(c2ccc3nc(=O)ccn3n2)CC[C@@H]1c1cc(F)c(F)cc1F.O=C(O)C(F)(F)F`, the IC50 against Dipeptidyl peptidase 8 is greater than 100 µM; on Dipeptidyl peptidase 9, 19 µM; against Dipeptidyl peptidase 4 it was 0.0012 µM; against Dipeptidyl peptidase 2 it was greater than 100 µM; in [5] it was 100 µM; in data set [1], 84.6 µM. Moreover, half-maximal inhibition against Cytochrome P450 2D6 (IC50) required 55.4 µM. For the same compound, the clearance in data set [2] was 2.1 L/h/kg. The half-life in data set [3] is 1.6 h. In data set [4], this compound had a bioavailability of 12%.

`Cc1cc(=O)n2nc(N3CC[C@H](c4cc(F)c(F)cc4F)[C@@H](N)C3)ccc2n1.O=C(O)C(F)(F)F`: the IC50 was greater than 100 µM at Dipeptidyl peptidase 8; greater than 100 µM at Dipeptidyl peptidase 9; 0.008 µM on Dipeptidyl peptidase 4; greater than 100 µM at Dipeptidyl peptidase 2; 33.2 µM in data set [5]; 18.5 µM in data set [1]. The same compound had an IC50 against Cytochrome P450 2D6 of 16.2 µM. For the same compound, the clearance in [2] was found to be 1.08 L/h/kg. In data set [3], this compound had a half-life of 1.4 h. Further, the bioavailability in [4] stood at 74%.

On to `N[C@H]1CN(c2ccc3nncn3n2)CC[C@@H]1c1cc(F)c(F)cc1F`, for which the IC50 on Dipeptidyl peptidase 8 is greater than 100 µM; on Dipeptidyl peptidase 9, greater than 100 µM; at Dipeptidyl peptidase 4, 0.031 µM; against Dipeptidyl peptidase 2, greater than 100 µM.

`Cc1nnc2ccc(N3CC[C@H](c4cc(F)c(F)cc4F)[C@@H](N)C3)nn12.O=C(O)C(F)(F)F`: the IC50 against Dipeptidyl peptidase 8 was greater than 100 µM; against Dipeptidyl peptidase 9 it was greater than 100 µM; against Dipeptidyl peptidase 4, 0.006 µM; at Dipeptidyl peptidase 2, 74 µM; in data set [1] it was 2 µM. The same compound showed a clearance in data set [2] of 0.72 L/h/kg. In addition, the half-life in [3] was 4.7 h. In data set [4], the bioavailability came out at 100%.

The compound `N[C@H]1CN(c2ccc(C(F)(F)F)cn2)CC[C@@H]1c1cc(F)c(F)cc1F` showed an IC50 at Dipeptidyl peptidase 2 of 28 µM.

As to `N[C@H]1CN(c2ccc3ccccc3n2)CC[C@@H]1c1cc(F)c(F)cc1F`, the IC50 against Dipeptidyl peptidase 8 is 10 µM; on Dipeptidyl peptidase 9, 13 µM; at Dipeptidyl peptidase 4, 0.054 µM; on Dipeptidyl peptidase 2, 21 µM.

As to `N[C@H]1CN(c2cnc3ccccc3n2)CC[C@@H]1c1cc(F)c(F)cc1F`, the IC50 against Dipeptidyl peptidase 2 was 27 µM.

For `N[C@H]1CN(c2ccc3nc(C(F)(F)F)cn3n2)CC[C@@H]1c1cc(F)c(F)cc1F`, the IC50 against Dipeptidyl peptidase 8 was determined as 49 µM; on Dipeptidyl peptidase 9, 75 µM; against Dipeptidyl peptidase 4, 0.022 µM; at Dipeptidyl peptidase 2, 64 µM.

`Cn1c(C2CC2)nc2ccc(N3CC[C@H](c4cc(F)c(F)cc4F)[C@@H](N)C3)nc21`: the IC50 against Dipeptidyl peptidase 8 is greater than 100 µM; on Dipeptidyl peptidase 9, 57 µM; against Dipeptidyl peptidase 4 it was 0.002 µM; against Dipeptidyl peptidase 2, 41 µM.

`CCc1nnc2ccc(N3CC[C@H](c4cc(F)c(F)cc4F)[C@@H](N)C3)nn12` came in with an IC50 against Dipeptidyl peptidase 2 of 90 µM.

As to `N[C@H]1CN(c2ccccc2)CC[C@@H]1c1cc(F)c(F)cc1F`, the IC50 against Dipeptidyl peptidase 8 is 33 µM; against Dipeptidyl peptidase 9, 39 µM; at Dipeptidyl peptidase 4 it was 0.21 µM; against Dipeptidyl peptidase 2, 5.5 µM.

On to `N[C@H]1CN(c2ccncc2)CC[C@@H]1c1cc(F)c(F)cc1F`, for which the IC50 against Dipeptidyl peptidase 8 is 43 µM; at Dipeptidyl peptidase 9, 35 µM; against Dipeptidyl peptidase 4 it was 0.125 µM; on Dipeptidyl peptidase 2 it was 46 µM.

In the case of `Cn1nc2ccc(N3CC[C@H](c4cc(F)c(F)cc4F)[C@@H](N)C3)nn2c1=O`, it took 57 µM to reach half-maximal inhibition at Dipeptidyl peptidase 2 (IC50).

Regarding `N[C@H]1CN(c2ncccn2)CC[C@@H]1c1cc(F)c(F)cc1F`, the IC50 on Dipeptidyl peptidase 8 worked out at 33 µM; on Dipeptidyl peptidase 9, 58 µM; against Dipeptidyl peptidase 4, 0.09 µM; against Dipeptidyl peptidase 2, 54 µM.
